Source: paper PMC9090415, “Discovery of small molecule inhibitors of Plasmodium falciparum apicoplast DNA polymerase” (Journal of Enzyme Inhibition and Medicinal Chemistry, 2022)

Molecular target: P. falciparum apicoplast DNA polymerase (Pf-apPOL) (Plasmodium falciparum, UniProt Q8ILY1)
Experiment: Fluorescence-based high-throughput DNA polymerase assay (molecular beacon), primary screen and dose-response;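 for % inhibition ApPOL 90': test concentration in µM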;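 for % inhibition apPOL 180': test concentration in µM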
Assay type: biochemical
Outline: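 Single-point screening used 10 µM compound with 20 nM polymerase, 20 nM hairpin substrate and 6 µM dNTPs for 90 min at 25 °C. Confirmatory titrations (2.5–80 µM) followed fluorescence at three times, and IC50 was derived from a fit including a cooperativity term n.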

[1] = supplemental file 2, sheet IC50 nontoxic compounds; Pf-apPOL
[2] = primary screen value of the 186 hits; unit not given; 90 min, 10 µM

Sequence of P. falciparum apicoplast DNA polymerase (Pf-apPOL) (Q8ILY1 entry or part of it): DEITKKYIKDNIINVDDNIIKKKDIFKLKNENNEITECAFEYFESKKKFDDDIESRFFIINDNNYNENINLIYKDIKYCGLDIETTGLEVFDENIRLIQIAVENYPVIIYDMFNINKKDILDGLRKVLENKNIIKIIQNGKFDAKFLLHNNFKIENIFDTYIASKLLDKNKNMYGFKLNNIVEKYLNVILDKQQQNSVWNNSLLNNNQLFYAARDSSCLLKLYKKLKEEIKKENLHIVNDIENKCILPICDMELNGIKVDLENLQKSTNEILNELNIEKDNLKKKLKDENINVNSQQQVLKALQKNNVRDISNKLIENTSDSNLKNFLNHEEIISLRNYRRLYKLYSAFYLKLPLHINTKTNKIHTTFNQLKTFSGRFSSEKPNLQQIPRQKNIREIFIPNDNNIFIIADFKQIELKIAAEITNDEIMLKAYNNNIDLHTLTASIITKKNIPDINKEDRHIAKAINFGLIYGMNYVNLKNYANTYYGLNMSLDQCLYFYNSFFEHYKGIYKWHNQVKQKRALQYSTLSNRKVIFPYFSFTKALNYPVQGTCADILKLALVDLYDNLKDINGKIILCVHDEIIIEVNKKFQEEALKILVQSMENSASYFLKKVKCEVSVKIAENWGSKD

## O=[N+]([O-])c1cc2c(cc1CN1CCN(c3cccc(Cl)c3)CC1)OCO2 [KU0005610]
'DNA Pol'; screening value, unit not given; 90 min, 10 µM
  DNA Pol: 40
DRC-1; 10'; concentration 2.5
  % inhibition Apo pol 10': 13.4536%
DRC-1; 10'; concentration 5
  % inhibition Apo pol 10': 19.449%
DRC-1; 10'; concentration 10
  % inhibition Apo pol 10': 35.0383%
DRC-1; 10'; concentration 20
  % inhibition Apo pol 10': 58.0522%
DRC-1; 10'; concentration 40
  % inhibition Apo pol 10': 81.6045%
DRC-1; 10'; concentration 80
  % inhibition Apo pol 10': 82.8557%
DRC-1; 90'; concentration 2.5
  % inhibition Apol 90': 0.2927%
DRC-1; 90'; concentration 5
  % inhibition Apol 90': 2.869%
DRC-1; 90'; concentration 10
  % inhibition Apol 90': 13.5382%
DRC-1; 90'; concentration 20
  % inhibition Apol 90': 40.3549%
DRC-1; 90'; concentration 40
  % inhibition Apol 90': 64.8091%
DRC-1; 90'; concentration 80
  % inhibition Apol 90': 60.8313%
DRC-1; 180'; concentration 2.5
  % inhibition apPOL 180': -5.629%
DRC-1; 180'; concentration 5
  % inhibition apPOL 180': -4.543%
DRC-1; 180'; concentration 10
  % inhibition apPOL 180': 2.609%
DRC-1; 180'; concentration 20
  % inhibition apPOL 180': 32.6998%
DRC-1; 180'; concentration 40
  % inhibition apPOL 180': 54.6533%
DRC-1; 180'; concentration 80
  % inhibition apPOL 180': 41.754%
DRC-2, 5', concentration 2.5
  % inhibition Apo pol 5': 6%
DRC-2, 5', concentration 5
  % inhibition Apo pol 5': 11%
DRC-2, 5', concentration 10
  % inhibition Apo pol 5': 25%
DRC-2, 5', concentration 20
  % inhibition Apo pol 5': 34%
DRC-2, 5', concentration 40
  % inhibition Apo pol 5': 45%
DRC-2, 5', concentration 80
  % inhibition Apo pol 5': 49%
DRC-2, 40', concentration 2.5
  % inhibition Apol 40': 2.55%
DRC-2, 40', concentration 5
  % inhibition Apol 40': 6.48%
DRC-2, 40', concentration 10
  % inhibition Apol 40': 18%
DRC-2, 40', concentration 20
  % inhibition Apol 40': 28%
DRC-2, 40', concentration 40
  % inhibition Apol 40': 49%
DRC-2, 40', concentration 80
  % inhibition Apol 40': 61%
DRC-2, 90', concentration 2.5
  % inhibition ApPOL 90': -0.242%
DRC-2, 90', concentration 5
  % inhibition ApPOL 90': 1.42%
DRC-2, 90', concentration 10
  % inhibition ApPOL 90': 11%
DRC-2, 90', concentration 20
  % inhibition ApPOL 90': 20%
DRC-2, 90', concentration 40
  % inhibition ApPOL 90': 45%
DRC-2, 90', concentration 80
  % inhibition ApPOL 90': 61%
DRC-2, 180', concentration 2.5
  % inhibition apPOL 180': -7.6%
DRC-2, 180', concentration 5
  % inhibition apPOL 180': -5.3%
DRC-2, 180', concentration 10
  % inhibition apPOL 180': 2.12%
DRC-2, 180', concentration 20
  % inhibition apPOL 180': 7%
DRC-2, 180', concentration 40
  % inhibition apPOL 180': 32%
DRC-2, 180', concentration 80
  % inhibition apPOL 180': 53%
Conc 5 (unit not given); 5'; DRC-2
  % inhibition Apo pol 5': 11%
Conc 10 (unit not given); 90'; DRC-2
  % inhibition ApPOL 90': 11%
Conc 40 (unit not given); 5'; DRC-2
  % inhibition Apo pol 5': 45%
Conc 40 (unit not given); 40'; DRC-2
  % inhibition Apol 40': 49%
Conc 40 (unit not given); 90'; DRC-2
  % inhibition ApPOL 90': 45%
Conc 80 (unit not given); 5'; DRC-2
  % inhibition Apo pol 5': 49%
Conc 80 (unit not given); 40'; DRC-2
  % inhibition Apol 40': 61%
Conc 80 (unit not given); 90'; DRC-2
  % inhibition ApPOL 90': 61%
Primary screen hit value, DNA Pol (186 hits); 90 min, 10 µM
  DNA Pol: 40

## COc1ccc(NC(=O)Cn2nc3c(cc2=O)CCC3)cc1Cl [Molecule 4]
[1]
  IC50: 5.29 µM

## OC(C#Cc1ccccc1)c1ccco1 (stereo not shown) [Molecule 95, OC(c1ccco1)C#Cc1ccccc1]
DRC-1; 10'; concentration 2.5
  % inhibition Apo pol 10': 31.3113%
DRC-1; 10'; concentration 5
  % inhibition Apo pol 10': 57.2957%
DRC-1; 10'; concentration 10
  % inhibition Apo pol 10': 77.3144%
DRC-1; 10'; concentration 20
  % inhibition Apo pol 10': 80.9257%
DRC-1; 10'; concentration 40
  % inhibition Apo pol 10': 79.5386%
DRC-1; 10'; concentration 80
  % inhibition Apo pol 10': 69.6909%
DRC-1; 90'; concentration 2.5
  % inhibition Apol 90': 17.4442%
DRC-1; 90'; concentration 5
  % inhibition Apol 90': 42.0165%
DRC-1; 90'; concentration 10
  % inhibition Apol 90': 68.6484%
DRC-1; 90'; concentration 20
  % inhibition Apol 90': 80.4558%
DRC-1; 90'; concentration 40
  % inhibition Apol 90': 83.9315%
DRC-1; 90'; concentration 80
  % inhibition Apol 90': 80.7801%
DRC-1; 180'; concentration 2.5
  % inhibition apPOL 180': 5.809%
DRC-1; 180'; concentration 5
  % inhibition apPOL 180': 25.3082%
DRC-1; 180'; concentration 10
  % inhibition apPOL 180': 55.1933%
DRC-1; 180'; concentration 20
  % inhibition apPOL 180': 73.4768%
DRC-1; 180'; concentration 40
  % inhibition apPOL 180': 83.0192%
DRC-1; 180'; concentration 80
  % inhibition apPOL 180': 83.0007%
DRC-2, 40', concentration 10 (unit not given)
  % inhibition Apol 40': 60%
DRC-2, 40', concentration 20 (unit not given)
  % inhibition Apol 40': 62%
DRC-2, 90', concentration 10 (unit not given)
  % inhibition ApPOL 90': 62%
DRC-2, 90', concentration 20 (unit not given)
  % inhibition ApPOL 90': 67%
DRC-2, 90', concentration 40 (unit not given)
  % inhibition ApPOL 90': 66%
DRC-2, 90', concentration 80 (unit not given)
  % inhibition ApPOL 90': 60%
DRC-2, 180', concentration 20 (unit not given)
  % inhibition apPOL 180': 66%
DRC-2, 180', concentration 80 (unit not given)
  % inhibition apPOL 180': 67%
DRC-2; 5'; concentration 2.5
  % inhibition Apo pol 5': 14%
DRC-2; 5'; concentration 5
  % inhibition Apo pol 5': 32%
DRC-2; 5'; concentration 10
  % inhibition Apo pol 5': 39%
DRC-2; 5'; concentration 20
  % inhibition Apo pol 5': 34%
DRC-2; 5'; concentration 40
  % inhibition Apo pol 5': 22%
DRC-2; 5'; concentration 80
  % inhibition Apo pol 5': -5%
DRC-2; 40'; concentration 2.5
  % inhibition Apol 40': 15%
DRC-2; 40'; concentration 5
  % inhibition Apol 40': 44%
DRC-2; 40'; concentration 10
  % inhibition Apol 40': 60%
DRC-2; 40'; concentration 20
  % inhibition Apol 40': 62%
DRC-2; 40'; concentration 40
  % inhibition Apol 40': 59%
DRC-2; 40'; concentration 80
  % inhibition Apol 40': 48%
DRC-2; 90'; concentration 2.5
  % inhibition ApPOL 90': 12%
DRC-2; 90'; concentration 5
  % inhibition ApPOL 90': 41%
DRC-2; 90'; concentration 10
  % inhibition ApPOL 90': 62%
DRC-2; 90'; concentration 20
  % inhibition ApPOL 90': 67%
DRC-2; 90'; concentration 40
  % inhibition ApPOL 90': 66%
DRC-2; 90'; concentration 80
  % inhibition ApPOL 90': 60%
DRC-2; 180'; concentration 2.5
  % inhibition apPOL 180': 4.25%
DRC-2; 180'; concentration 5
  % inhibition apPOL 180': 30%
DRC-2; 180'; concentration 10
  % inhibition apPOL 180': 58%
DRC-2; 180'; concentration 20
  % inhibition apPOL 180': 66%
DRC-2; 180'; concentration 40
  % inhibition apPOL 180': 71%
DRC-2; 180'; concentration 80
  % inhibition apPOL 180': 67%
[2]
  DNA Pol: 70
Primary screen value, head "DNA Pol", unit not given; 90 min, 10 µM
  DNA Pol: 70

## CCCCCCCCCCCC1SCC(C(=O)O)N1C(C)=O (stereo not shown) [Molecule 72]
DRC-1; 10'; concentration 2.5
  % inhibition Apo pol 10': 3.482%
DRC-1; 10'; concentration 5
  % inhibition Apo pol 10': 5.699%
DRC-1; 10'; concentration 10
  % inhibition Apo pol 10': 15.2619%
DRC-1; 10'; concentration 20
  % inhibition Apo pol 10': 24.1814%
DRC-1; 10'; concentration 40
  % inhibition Apo pol 10': 35.0794%
DRC-1; 10'; concentration 80
  % inhibition Apo pol 10': 89.6133%
DRC-1; 90'; concentration 2.5
  % inhibition Apol 90': 2.632%
DRC-1; 90'; concentration 5
  % inhibition Apol 90': 5.518%
DRC-1; 90'; concentration 10
  % inhibition Apol 90': 12.9803%
DRC-1; 90'; concentration 20
  % inhibition Apol 90': 20.4329%
DRC-1; 90'; concentration 40
  % inhibition Apol 90': 28.5438%
DRC-1; 90'; concentration 80
  % inhibition Apol 90': 88.679%
DRC-1; 180'; concentration 2.5
  % inhibition apPOL 180': -2.715%
DRC-1; 180'; concentration 5
  % inhibition apPOL 180': -0.6083%
DRC-1; 180'; concentration 10
  % inhibition apPOL 180': 5.5577%
DRC-1; 180'; concentration 20
  % inhibition apPOL 180': 11.4894%
DRC-1; 180'; concentration 40
  % inhibition apPOL 180': 17.8626%
DRC-1; 180'; concentration 80
  % inhibition apPOL 180': 86.0518%
DRC-2; 5'; concentration 2.5
  % inhibition Apo pol 5': 13%
DRC-2; 5'; concentration 5
  % inhibition Apo pol 5': 16%
DRC-2; 5'; concentration 10
  % inhibition Apo pol 5': 26%
DRC-2; 5'; concentration 20
  % inhibition Apo pol 5': 38%
DRC-2; 5'; concentration 40
  % inhibition Apo pol 5': 54%
DRC-2; 5'; concentration 80
  % inhibition Apo pol 5': 59%
DRC-2; 40'; concentration 2.5
  % inhibition Apol 40': 10%
DRC-2; 40'; concentration 5
  % inhibition Apol 40': 15%
DRC-2; 40'; concentration 10
  % inhibition Apol 40': 29%
DRC-2; 40'; concentration 20
  % inhibition Apol 40': 44%
DRC-2; 40'; concentration 40
  % inhibition Apol 40': 65%
DRC-2; 40'; concentration 80
  % inhibition Apol 40': 76%
DRC-2; 90'; concentration 2.5
  % inhibition ApPOL 90': 6%
DRC-2; 90'; concentration 5
  % inhibition ApPOL 90': 13%
DRC-2; 90'; concentration 10
  % inhibition ApPOL 90': 26%
DRC-2; 90'; concentration 20
  % inhibition ApPOL 90': 43%
DRC-2; 90'; concentration 40
  % inhibition ApPOL 90': 67%
DRC-2; 90'; concentration 80
  % inhibition ApPOL 90': 81%
DRC-2; 180'; concentration 2.5
  % inhibition apPOL 180': 0.516%
DRC-2; 180'; concentration 5
  % inhibition apPOL 180': 5%
DRC-2; 180'; concentration 10
  % inhibition apPOL 180': 17%
DRC-2; 180'; concentration 20
  % inhibition apPOL 180': 34%
DRC-2; 180'; concentration 40
  % inhibition apPOL 180': 64%
DRC-2; 180'; concentration 80
  % inhibition apPOL 180': 84%
conc. 2.5; 5'; DRC-2
  % inhibition Apo pol 5': 13%
conc. 5; 90'; DRC-2
  % inhibition ApPOL 90': 13%
conc. 10; 5'; DRC-2
  % inhibition Apo pol 5': 26%
conc. 10; 90'; DRC-2
  % inhibition ApPOL 90': 26%
Primary screen value by plate and well; 90 min, 10 µM
  DNA Pol: 90
[2]
  DNA Pol: 90
[1]
  IC50: 48.9 µM
